From paper PMC7244497 (Scientific Reports, 2020)

Assays:
[1] = cited from earlier work
[2] = test system: DOP receptor dephosphorylation at T361 and S363; test: DOP receptor dephosphorylation after DPDPE washout with phosphatase inhibitors (Western blot, HEK293 cells); format: cell-based, human; conditions: HEK293 HA-hDOP; inhibitor preincubated 30 min, 1 µM DPDPE 10 min, citrate washout, 0-40 min

Row | SMILES | Effective dose in most behavior assays [1] [mg/kg] | Effect on DOP receptor dephosphorylation at T361 and S363 [2]
1 | CCN(CC)C(=O)c1ccc(C2=CC3(CCNCC3)Oc3cccc(O)c32)cc1 [ADL5859, N,N-diethyl-4-(5-hydroxyspiro[chromene-2,4′-piperidine]-4-yl)benzamide] | 10 | 
2 | CCN(CC)C(=O)c1ccc(C(=C2CCNCC2)c2ccccc2)cc1 [AR-M1000390, N,N-Diethyl-4-(phenylpiperidin-4-ylidenemethyl)benzamide] | 10 | 
3 | COC[C@@H]([C@H](O)[C@H](O)C(=O)NCC[C@H](C)c1nc(/C=C/C[C@@H]2O[C@]3(C[C@@H](O)[C@@H]2C)O[C@H]([C@H](C[C@H](O)[C@H](C)[C@H](O)[C@H](C)/C=C(C)/C(C)=C/C=C/C(C)=C\C#N)OC)[C@H](OP(=O)(O)O)C3(C)C)co1)N(C)C [calyculin A] |  | inhibited in a concentration-dependent manner only by calyculin A
